Measurements from BindingDB's records for doi:10.1021/jm950721m (Warner-Lambert, 1996).
pEC50, pKi: −log10 of the molar value.

Assays:
[1] = Compound was evaluated for effective concentration […] for Dopamine receptor D2 mitogenesis. (95% confidence intervals)
[2] = Binding affinity to rat Dopamine receptor D3 expressed in CHO cells was determined using [125 I] iodosulpride as radioligand

| Structure (SMILES) | pEC50 [1] | pKi [2] |
| --- | --- | --- |
| Nc1ccc(C#CCCN2CC=C(c3ccccc3)CC2)cc1 [4-[4-(4-Phenyl-3,6-dihydro-2H-pyridin-1-yl)-but-1-ynyl]-phenylamine] | 9.30 | – |
| Nc1cccc(C#CCCN2CC=C(c3ccccc3)CC2)c1 [3-[4-(4-Phenyl-3,6-dihydro-2H-pyridin-1-yl)-but-1-ynyl]-phenylamine] | 8.01 | 9.44 |
